The source of these data is publication PMC4521925, “17β-Hydroxysteroid Dehydrogenase Type 2 Inhibition: Discovery of Selective and Metabolically Stable Compounds Inhibiting Both the Human Enzyme and Its Murine Ortholog” (PLoS ONE, 2015).

A short description of data set [1]: Metabolic stability in a cell-free assay (liver S9 fraction). Type of data set: in vitro ADME. As to conditions: pooled liver S9 fraction; human liver S9 fraction 1 mg/ml, NADPH regenerating system, UDPGA, PAPS, 37°C; inhibitor 1 μM; read-out: Inhibitor t1/2. How it is done:
Compounds 7a, 8a, 16a, 19a, 22a, 27a and 27 were tested according to established method[33–35]For evaluation of phase I and II metabolic stability 1 μM compound was incubated with 1 mg/ml pooled mammalian liver S9 fraction (BD Gentest), 2 mM NADPH regenerating system, 1 mM UDPGA and 0.1 mM PAPS at 37°C for 0, 5, 15 and 60 minutes at a final volume of 100 μL. The incubation was stopped by precipitation of S9 enzymes with 2 volumes of cold acetonitrile containing internal standard. Concentration of the remaining test compound at the different time points was analyzed by LC-MS/MS and used to determine half-life (t1/2).

In a further data set the target is T1, h17β-HSD1 (Homo sapiens, UniProt P14061).
T1 construct: h17β-HSD1 was obtained after precipitation with ammonium sulfate from the cytosolic fraction; from tissue; host or cells: human placenta, cytosolic fraction
T1 sequence (P14061 1-328): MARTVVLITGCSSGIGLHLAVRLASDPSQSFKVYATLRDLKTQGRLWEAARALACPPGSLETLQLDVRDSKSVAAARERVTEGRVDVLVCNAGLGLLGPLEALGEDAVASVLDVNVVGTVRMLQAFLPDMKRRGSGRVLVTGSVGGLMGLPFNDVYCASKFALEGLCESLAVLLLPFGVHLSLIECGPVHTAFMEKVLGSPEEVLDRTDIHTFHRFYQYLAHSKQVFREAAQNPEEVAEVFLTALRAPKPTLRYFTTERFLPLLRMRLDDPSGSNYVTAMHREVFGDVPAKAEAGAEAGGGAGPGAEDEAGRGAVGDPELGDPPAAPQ
Briefly: Inhibition of h17β-HSD1 in cell-free assay. It counts as biochemical. As to conditions: human placental cytosolic fraction, substrate E1 [500 nM], cofactor NADH [500 μM]; for inhibition at 1 µM: read-out: % inh. at 1 μM h17β-HSD1. How it is done: (§1) h17β-HSD2, h17β-HSD1, m17β-HSD2 and m17β-HSD1 cell-free assays were performed similarly, by incubating enzyme, tritiated substrate, cofactor and inhibitor, according to described procedures.
(§2) Cytosolic (h17β-HSD1) and microsomal (h17β-HSD2) fractions were obtained from human placenta according to previously described procedures. Fresh tissue was homogenized and the enzymes were separated from the mitochondria, cell membrane. Nucleus and other rests by fractional centrifugation at 1000 g, 10.000 g and 150.000 g. The pellet fraction containing the microsomal h17β-HSD2 was used for the determination of h17β-HSD2 inhibition, while h17β-HSD1 was obtained after precipitation with ammonium sulfate from the cytosolic fraction for use of testing of h17β-HSD1 inhibition. Aliquots containing h17β-HSD1 or h17β-HSD2 were stored frozen.
(§3) The 17β-HSD1 inhibition assay was performed similarly to the h17β-HSD2 test. The human cytosolic enzyme was incubated with NADH [500 μM] while the mouse recombinant enzyme was reacted with NADPH [500 μM].Test compound and a mixture of unlabelled- and [^3H]-E1 (final concentration: 500 nM, 0.15 μCi) were added and mixed for 10 min at 37°C. Further treatment of the samples and HPLC separation was carried out as mentioned above for h17β-HSD2.

For another data set, the target named is T2, h17β-HSD2 (Homo sapiens, UniProt P37059).
T2 sequence (P37059 1-387): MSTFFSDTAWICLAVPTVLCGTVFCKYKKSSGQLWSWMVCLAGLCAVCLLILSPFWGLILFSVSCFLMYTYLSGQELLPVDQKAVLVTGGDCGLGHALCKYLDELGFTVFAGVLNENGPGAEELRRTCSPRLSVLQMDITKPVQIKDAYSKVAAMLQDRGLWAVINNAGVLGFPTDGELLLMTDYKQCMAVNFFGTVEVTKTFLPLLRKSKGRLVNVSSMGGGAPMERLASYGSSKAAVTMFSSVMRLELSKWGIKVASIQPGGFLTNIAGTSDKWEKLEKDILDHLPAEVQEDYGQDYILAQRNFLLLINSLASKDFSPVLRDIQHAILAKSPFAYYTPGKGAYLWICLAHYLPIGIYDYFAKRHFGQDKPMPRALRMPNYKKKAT
Briefly: Inhibition of h17β-HSD2 in cell-free assay. The arrangement: from tissue; host or cells: human placenta, microsomal fraction. It counts as biochemical. The following applies: for inhibition at 1 µM: read-out: % inh. at 1 μM h17β-HSD2; for s.f. (selectivity factor) = IC50(17β-HSD1)/IC50(17β-HSD2): human enzymes, cell-free. The protocol: as §1, §2
(§4) Inhibitory activities were evaluated following an established method with minor modifications. Briefly, the enzyme preparation was incubated with NAD^+ [1500 μM] in the presence of potential inhibitors at 37C in a phosphate buffer (50 mM) supplemented with 20% of glycerol and EDTA 1mM. Inhibitor stock solutions were prepared in DMSO. Final concentration of DMSO was adjusted to 1% in all samples. […] After 20 min, the incubation was stopped with HgCl2 and the mixture was extracted with ether. After evaporation, the steroids were dissolved in acetonitrile/water (45:55). […] Detection and quantification of the steroids were performed using a radioflow detector (Berthold Technologies, Bad Wildbad). […] Each value was calculated from at least two independent experiments.

The target in a further data set is T3, m17β-HSD2 (Mus musculus, UniProt P51658).
T3 construct: The microsomal fraction (m17β-HSD2) was obtained from mouse liver as described for h17β-HSD2; tissue Pharmacelsus GmbH (mouse livers); host or cells: mouse liver, microsomal fraction
T3 sequence (P51658 1-381): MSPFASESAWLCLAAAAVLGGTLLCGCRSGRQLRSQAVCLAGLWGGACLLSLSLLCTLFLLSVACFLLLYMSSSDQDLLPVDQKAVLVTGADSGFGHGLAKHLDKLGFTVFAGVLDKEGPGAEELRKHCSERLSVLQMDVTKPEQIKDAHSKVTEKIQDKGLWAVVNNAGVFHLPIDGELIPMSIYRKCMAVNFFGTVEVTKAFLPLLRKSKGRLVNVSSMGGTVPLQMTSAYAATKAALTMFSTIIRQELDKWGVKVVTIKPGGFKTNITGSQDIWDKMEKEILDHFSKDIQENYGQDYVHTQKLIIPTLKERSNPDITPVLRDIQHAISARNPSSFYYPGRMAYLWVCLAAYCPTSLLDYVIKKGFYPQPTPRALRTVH
Kind of data set: Inhibition of m17β-HSD2 in cell-free assay. Type of data set: biochemical. The following applies: read-out: % inh. at 1 μM m17β-HSD2. How it is done:
as §1
The microsomal fraction (m17β-HSD2) was obtained from mouse liver as described for h17β-HSD2. Inhibitory activities were evaluated by a method identical to the one described for the human enzyme.
as §4

A further data set addresses T4, m17β-HSD1 (Mus musculus, UniProt P51656).
T4 construct: host or cells: HEK 293 cells, transient transfection, 1000 g supernatant of the lysate
T4 sequence (P51656 1-344): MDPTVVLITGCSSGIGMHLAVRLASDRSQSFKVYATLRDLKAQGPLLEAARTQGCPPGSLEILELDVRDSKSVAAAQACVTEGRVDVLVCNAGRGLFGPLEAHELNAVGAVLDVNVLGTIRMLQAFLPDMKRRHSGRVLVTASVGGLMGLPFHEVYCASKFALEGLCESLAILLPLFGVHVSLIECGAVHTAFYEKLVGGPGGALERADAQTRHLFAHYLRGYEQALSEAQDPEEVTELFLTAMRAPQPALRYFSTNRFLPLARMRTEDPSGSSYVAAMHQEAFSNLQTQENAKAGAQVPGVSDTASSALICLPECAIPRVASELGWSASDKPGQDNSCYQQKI
Kind of data set: Inhibition of m17β-HSD1 in cell-free assay. Type of data set: biochemical. The following applies: recombinant m17β-HSD1, substrate E1 [500 nM], NADPH [500 μM]. The protocol: as §1
Recombinant m17β-HSD1 enzyme was produced by transfection of HEK 293 cells with a m17β-HSD1 expression plasmid (coding sequence of NM_010475 in pCMV6Entry vector, OriGene Technologies, Inc.) according to a described procedure. 48 hours after transfection cells were homogenized by sonication (3 x 10 s) in a buffer containing saccharose (40 mMTris, 250 mM saccharose, 5 mM EDTA, 7 mM DTT, 1 mM PMSF, pH 7,5). Cell lysate was centrifuged (1000 g, 15 min, 4°C) and 20% glycerol was added to the supernatant before aliquots were frozen and stored at -70°C.
as §3

A value given as a limit tells only on which side of the number the result lay.

As for `COc1cccc(-c2ccc(C(=O)N(C)c3cccc(C)c3)cc2)c1` [Compound 5a, 3'-Methoxy-N-methyl-N-(m-tolyl)-[1,1'-biphenyl]-4-carboxamide], the half-life at 1 μM in data set [1] was 1.93 h. Besides, the figures for the inhibition at 1 µM on h17β-HSD1, on h17β-HSD2 and on m17β-HSD2 were less than 10%, 44% and 56%, respectively.

The compound `COc1ccc(-c2ccc(C(=O)N(C)c3cccc(OC)c3)cc2)cc1` [Compound 10a, 4'-Methoxy-N-(3-methoxyphenyl)-N-methyl-[1,1'-biphenyl]-4-carboxamide] had a melting point of 128 to 130 °C. In addition, the IC50 on h17β-HSD1 worked out at 27000 nM. At h17β-HSD2, half-maximal inhibition (IC50) was put at 710 nM and the “s.f. (selectivity factor) = IC50(17β-HSD1)/IC50(17β-HSD2)” value was 38. For the same compound, the inhibition at 1 µM at m17β-HSD2 was determined as 66%. For the same compound, the “inhibition of m17β-HSD1 at 1 μM” value at m17β-HSD1 is given as “None of the tested compounds showed any inhibition”.

For the compound `COc1cccc(N(C)C(=O)c2ccc(-c3cccc(F)c3)cc2)c1` [Compound 13a, 3'-Fluoro-N-(3-methoxyphenyl)-N-methyl-[1,1'-biphenyl]-4-carboxamide], the melting point was in the range of 97 to 100 °C. On h17β-HSD1, the half-inhibitory concentration (IC50) is 8000 nM. Further, at h17β-HSD2, it took 1000 nM to reach half-maximal inhibition (IC50) and the “s.f. (selectivity factor) = IC50(17β-HSD1)/IC50(17β-HSD2)” value was 8. At m17β-HSD2, the inhibition at 1 µM turned out to be 57%.

Turning to `COc1cccc(N(C)C(=O)c2ccc(-c3cccc(Cl)c3)cc2)c1` [Compound 14a, 3'-Chloro-N-(3-methoxyphenyl)-N-methyl-[1,1'-biphenyl]-4-carboxamide], the half-life at 1 μM in data set [1] amounted to 1.37 h. The IC50 on h17β-HSD1 was 12600 nM; on h17β-HSD2, 950 nM. Besides, on h17β-HSD2, the “s.f. (selectivity factor) = IC50(17β-HSD1)/IC50(17β-HSD2)” value was 13. At m17β-HSD2, the inhibition at 1 µM was 73%. Also, the “inhibition of m17β-HSD1 at 1 μM” value on m17β-HSD1 is “None of the tested compounds showed any inhibition”.

Consider `COc1cccc(N(C)C(=O)c2ccc(-c3cccc(N(C)C)c3)cc2)c1` [Compound 15a, 3'-(Dimethylamino)-N-(3-methoxyphenyl)-N-methyl-[1,1'-biphenyl]-4-carboxamide], for which the IC50 against h17β-HSD1 amounted to 5000 nM; on h17β-HSD2, 650 nM. For the same compound, the “s.f. (selectivity factor) = IC50(17β-HSD1)/IC50(17β-HSD2)” value at h17β-HSD2 was found to be 8. Besides, at m17β-HSD2, the inhibition at 1 µM was 67%. Moreover, the “inhibition of m17β-HSD1 at 1 μM” value on m17β-HSD1 is “None of the tested compounds showed any inhibition”.

Compound `COc1cccc(N(C)C(=O)c2ccc(-c3ccc(OC)c(OC)c3)cc2)c1` [Compound 16a, 3',4'-Dimethoxy-N-(3-methoxyphenyl)-N-methyl-[1,1'-biphenyl]-4-carboxamide] displayed a melting point of 153 to 156 °C. At h17β-HSD1, this compound had a concentration for half-maximal inhibition (IC50) of 85500 nM. On h17β-HSD2, the IC50 was 520 nM and the “s.f. (selectivity factor) = IC50(17β-HSD1)/IC50(17β-HSD2)” value came out at 164. In addition, the inhibition at 1 µM at m17β-HSD2 amounted to 52%.

On to `COc1cccc(N(C)C(=O)c2ccc(-c3cccc(OC)c3F)cc2)c1` [Compound 19a, 2'-Fluoro-3'-methoxy-N-(3-methoxyphenyl)-N-methyl-[1,1'-biphenyl]-4-carboxamide], for which the melting point is 125 to 127 °C. At h17β-HSD1, the inhibition at 1 µM amounted to 35%. On h17β-HSD2, the inhibition at 1 µM was 64%. Also, the inhibition at 1 µM at m17β-HSD2 was 67%. Also, the “inhibition of m17β-HSD1 at 1 μM” value on m17β-HSD1 is listed as “None of the tested compounds showed any inhibition”.

For the compound `COc1cccc(N(C)C(=O)c2ccc(-c3cccc(C)c3F)cc2)c1` [Compound 20a, 2'-Fluoro-N-(3-methoxyphenyl)-N,3'-dimethyl-[1,1'-biphenyl]-4-carboxamide], the melting point lay in the range of 91 to 94 °C. For the same compound, in data set [1], the half-life at 1 μM was found to be 1.73 h. The IC50 against h17β-HSD1 worked out at 11300 nM. In addition, at h17β-HSD2, the IC50 came to 460 nM and the “s.f. (selectivity factor) = IC50(17β-HSD1)/IC50(17β-HSD2)” value was 24. The inhibition at 1 µM at m17β-HSD2 is 48%.

As for `COc1cccc(N(C)C(=O)c2ccc(-c3ccc4c(c3)OCO4)cc2)c1` [Compound 22a, 4-(Benzo[d][1, 3]dioxol-5-yl)-N-(3-methoxyphenyl)-N-methylbenzamide], the melting point lay within 139 to 141 °C. Besides, the inhibition at 1 µM on h17β-HSD1 is less than 10%. Also, the inhibition at 1 µM at h17β-HSD2 is 51%. In addition, the inhibition at 1 µM on m17β-HSD2 was 56%.

In the case of `Cc1cccc(N(C)C(=O)c2ccc(-c3ccc4c(c3)OCO4)cc2)c1` [Compound 23a, 4-(Benzo[d][1, 3]dioxol-5-yl)-N-methyl-N-(m-tolyl)benzamide], the melting point is 111 to 113 °C. The midpoint of inhibition against h17β-HSD1, the IC50, lay at 10900 nM. On h17β-HSD2, 560 nM corresponded to half-maximal inhibition (IC50) and the “s.f. (selectivity factor) = IC50(17β-HSD1)/IC50(17β-HSD2)” value is listed as 20. In addition, the inhibition at 1 µM on m17β-HSD2 turned out to be 70%. Moreover, the “inhibition of m17β-HSD1 at 1 μM” value on m17β-HSD1 was “None of the tested compounds showed any inhibition”.
